In patent publication US20240307382A1, “MODULATORS OF THE INTEGRATED STRESS PATHWAY” (Calico Life Sciences LLC, priority 2017, published 2024):

What follows are compounds tested on HEK293T cells carrying the ATF4 luciferase reporter (assay: ATF4-Luc assay (ATF4 luciferase reporter, tunicamycin-treated cells)). Conditions: Homo sapiens, HEK-293T, 1 μg/mL tunicamycin, 7 hours.
Assay type: cell-based
In short: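 A stable HEK293T reporter line was made by placing the full-length human ATF4 5′-UTR ahead of a firefly luciferase sequence without its start methionine, delivered by retroviral transduction and puromycin selection. Cells were seeded at 30,000 per well in polylysine-coated 384-well plates, exposed next day to 1 μg/mL tunicamycin plus compound for 7 hours, and luminescence was read with One Glo.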

Compared with `Cn1nc(-c2ccccc2)cc1C(=O)NC12CCC(NC(=O)COc3ccc(Cl)c(F)c3)(CC1)[C@@H](O)C2` [Compound 1020, N-{(3S)-4-[2-(4-chloro-3-fluorophenoxy)acetamido]-3-hydroxybicyclo[2.2.2]octan-1-yl}-1-methyl-3-phenyl-1H-pyrazole-5-carboxamide], `Cc1nn(C)cc1C(=O)NC12CCC(NC(=O)COc3ccc(Cl)c(F)c3)(CC1)[C@@H](O)C2` [Compound 1108, N-{(3S)-4-[2-(4-chloro-3-fluorophenoxy)acetamido]-3-hydroxybicyclo[2.2.2]octan-1-yl}-1,3-dimethyl-1H-pyrazole-4-carboxamide] is higher in EC50: under 50 nM for the first, 50 to 250 nM for the second. The first is the more potent here.

Compared with `O=C(COc1ccc(Cl)c(F)c1)NC12CC(NC(=O)c3ncccc3CO)(C1)C2` [Compound 1091, N-{3-[2-(4-chloro-3-fluorophenoxy)acetamido]bicyclo[1.1.1]pentan-1-yl}-3-(hydroxymethyl)pyridine-2-carboxamide], `COc1cccnc1C(=O)NC12CC(NC(=O)COc3ccc(Cl)c(F)c3)(C1)C2` [Compound 1092, N-{3-[2-(4-chloro-3-fluorophenoxy)acetamido]bicyclo[1.1.1]pentan-1-yl}-3-methoxypyridine-2-carboxamide] is higher in EC50: 250 to 1000 nM for the first, over 2000 nM for the second.

`O=C(COc1ccc(Cl)c(Cl)c1)NC12CCC(NC(=O)c3cc(C(F)(F)F)no3)(CC1)C[C@@H]2O` [Compound 1017, N-{(3S)-4-[2-(3,4-dichlorophenoxy)acetamido]-3-hydroxybicyclo[2.2.2]octan-1-yl}-3-(trifluoromethyl)-1,2-oxazole-5-carboxamide] and `O=C(COc1ccc(Cl)c(Cl)c1)NC12CCC(NC(=O)c3cc(C4CC4)no3)(CC1)C[C@@H]2O` [Compound 1013, 3-cyclopropyl-N-{(3S)-4-[2-(3,4-dichlorophenoxy)acetamido]-3-hydroxybicyclo[2.2.2]octan-1-yl}-1,2-oxazole-5-carboxamide] cannot be ordered by EC50: under 50 nM for the first, under 50 nM for the second.

First: Cc1cc(C(=O)NC23CCC(NC(=O)COc4ccc(F)c(Cl)c4)(CC2)[C@@H](O)C3)on1 [Compound 1015, N-{(3S)-4-[2-(3-chloro-4-fluorophenoxy)acetamido]-3-hydroxybicyclo[2.2.2]octan-1-yl}-3-methyl-1,2-oxazole-5-carboxamide]
Second: O=C(COc1ccc(Cl)cc1)NC12CCC(NC(=O)c3cc(C(F)F)no3)(CC1)C[C@@H]2O [Compound 1102, N-{(3S)4-[2-(4-chlorophenoxy)acetamido]-3-hydroxybicyclo[2.2.2]octan-1-yl}-3-(difluoromethyl)-1,2-oxazole-5-carboxamide]
The EC50 of the first is higher: 50 to 250 nM for the first, under 50 nM for the second.

Compared with `CN(C)Cc1ccnc(C(=O)NC23CCC(NC(=O)COc4ccc(Cl)c(F)c4)(CC2)CC3)c1` [Compound 974, N-{4-[2-(4-chloro-3-fluorophenoxy)acetamido]bicyclo[2.2.2]octan-1-yl}-4-[(dimethylamino)methyl]pyridine-2-carboxamide], `O=C(COc1ccc(Cl)c(Cl)c1)NC12CCC(NC(=O)c3cccnc3)(CC1)CC2` [Compound 994, N-{4-[2-(3,4-dichlorophenoxy)acetamido]bicyclo[2.2.2]octan-1-yl}pyridine-3-carboxamide] is lower in EC50: over 2000 nM for the first, 250 to 1000 nM for the second.

First: Cc1nc(C(=O)NC23CCC(NC(=O)COc4ccc(Cl)c(F)c4)(CC2)[C@H](O)C3)n[nH]1 [Compound 1062, N-{(3R)-4-[2-(4-chloro-3-fluorophenoxy)acetamido]-3-hydroxybicyclo[2.2.2]octan-1-yl}-5-methyl-1H-1,2,4-triazole-3-carboxamide]
Second: COc1ncc(C(=O)NC23CCC(NC(=O)COc4ccc(Cl)c(F)c4)(CC2)[C@@H](O)C3)cn1 [Compound 1073, N-{(3S)-4-[2-(4-chloro-3-fluorophenoxy)acetamido]-3-hydroxybicyclo[2.2.2]octan-1-yl}-2-methoxypyrimidine-5-carboxamide]
The EC50 of the first is higher: 250 to 1000 nM for the first, 50 to 250 nM for the second. The second is the more potent here.

First: COc1ncc(OCC(=O)NC23CCC(NC(=O)c4cc(C(F)F)no4)(CC2)C[C@@H]3O)cn1 [Compound 1069, 3-(difluoromethyl)-N-[(3S)-3-hydroxy-4-{2-[(2-methoxypyrimidin-5-yl)oxy]acetamido}bicyclo[2.2.2]octan-1-yl]-1,2-oxazole-5-carboxamide]
Second: O=C(CCOc1ccc(Cl)c(F)c1)NC12CCC(NC(=O)c3cc(C(F)F)no3)(CC1)C[C@@H]2O [Compound 1078, N-{(3S)-4-[3-(4-chloro-3-fluorophenoxy)propanamido]-3-hydroxybicyclo[2.2.2]octan-1-yl}-3-(difluoromethyl)-1,2-oxazole-5-carboxamide]
The EC50 of the first is higher: 1000 to 2000 nM for the first, 250 to 1000 nM for the second.

`N#CCCc1ccc(C(=O)NC23CC(NC(=O)COc4ccc(Cl)c(F)c4)(C2)C3)nc1` [Compound 335, N-{3-[2-(4-chloro-3-fluorophenoxy)acetamido]bicyclo[1.1.1]pentan-1-yl}-5-(2-cyanoethyl)pyridine-2-carboxamide] and `O=C(COc1ccc(Cl)c(F)c1)NC12CC(NC(=O)c3ccc(Cl)c(O)c3)(C1)C2` [Compound 1089, 4-chloro-N-{3-[2-(4-chloro-3-fluorophenoxy)acetamido]bicyclo[1.1.1]pentan-1-yl}-3-hydroxybenzamide] fall in the same range of EC50: 50 to 250 nM for the first, 50 to 250 nM for the second.

First: CC(C)Oc1ccc(C(=O)NC23CCC(NC(=O)COc4ccc(Cl)c(Cl)c4)(CC2)[C@@H](O)C3)nc1 [Compound 1028, N-{(3S)-4-[2-(3,4-dichlorophenoxy)acetamido]-3-hydroxybicyclo[2.2.2]octan-1-yl}-5-[(propan-2-yl)oxy]pyridine-2-carboxamide]
Second: O=C(COc1ccc(Cl)c(Cl)c1)NC12CCC(NC(=O)c3cnc(C(F)F)o3)(CC1)C[C@@H]2O [Compound 1103, N-{(3S)-4-[2-(3,4-dichlorophenoxy)acetamido]-3-hydroxybicyclo[2.2.2]octan-1-yl}-2-(difluoromethyl)-1,3-oxazole-5-carboxamide]
The EC50 of the first is higher: 50 to 250 nM for the first, under 50 nM for the second. The second is the more potent here.

Compared with `Cn1nnc(-c2ccc(NC34CC(NC(=O)COc5ccc(Cl)c(F)c5)(C3)C4)cn2)n1` [Compound 1046, 2-(4-chloro-3-fluorophenoxy)-N-(3-{[6-(2-methyl-2H-tetrazol-5-yl)pyridin-3-yl]amino}bicyclo[1.1.1]pentan-1-yl)acetamide], `O=C(COc1ccc(Cl)c(F)c1)NC12CCC(NC(=O)c3ccn(-c4ccc(Cl)c(Cl)c4)n3)(CC1)[C@@H](O)C2` [Compound 1066, N-{(2S)-4-[2-(4-chloro-3-fluorophenoxy)acetamido]-2-hydroxybicyclo[2.2.2]octan-1-yl}-1-(3,4-dichlorophenyl)-1H-pyrazole-3-carboxamide] is lower in EC50: over 2000 nM for the first, under 50 nM for the second.

`O=C(COc1ccc(Cl)c(F)c1)NC12CCC(NC(=O)c3nc4cc(F)c(F)cc4o3)(CC1)C[C@@H]2O` [Compound 1075, N-{(3S)-4-[2-(4-chloro-3-fluorophenoxy)acetamido]-3-hydroxybicyclo[2.2.2]octan-1-yl}-5,6-difluoro-1,3-benzoxazole-2-carboxamide] and `O=C(COc1ccc(Cl)c(Cl)c1)NC12CCC(NC(=O)c3ccc4cc(F)ccc4n3)(CC1)C[C@@H]2O` [Compound 999, N-{(3S)-4-[2-(3,4-dichlorophenoxy)acetamido]-3-hydroxybicyclo[2.2.2]octan-1-yl}-6-fluoroquinoline-2-carboxamide] cannot be ordered by EC50: under 50 nM for the first, under 50 nM for the second.
